Test results reported in paper PMC7052517 (iScience, 2020).
Where two headings read alike, the source gives them in different places.

Experiments:
α-Synuclein [1] = target: T1, α-Synuclein (Homo sapiens, UniProt P37840); test: isothermal titration calorimetry; assay type: binding
α-Synuclein [2] = target: T1, α-Synuclein; test: isothermal titration calorimetry; assay type: binding; remark: listed apart in the source

Row | Kd (α-Synuclein [1]) [µM] | Kd (α-Synuclein [2]) [µM] | SMILES
1 | 179 |  | CCCCCCCC/C=C\CCCCCCCC(=O)O [OA, oleic acid]
2 | 221 |  | CC/C=C\C/C=C\C/C=C\CCCCCCCC(=O)O [ALA, α-linolenic acid]
3 |  | 0.5 | CC1=C(/C=C/C(C)=C/C=C/C(C)=C/C(=O)O)C(C)(C)CCC1 [RA, retinoic acid]
